Results as given in ChEMBL document CHEMBL3045446, “In vitro antimicrobial and antimycobacterial activity of some chalcones and their derivatives” (2013).
Converted amounts (≈) assume the structure as drawn. The source made the active and inactive calls. No cut-off for these calls is given here.

Tests used:
Salmonella typhi [1] = assay: Antimicrobial activity against Salmonella enterica subsp. enterica serovar Typhi MTCC 733 assessed as growth inhibition after 24 hr by agar streak dilution method; format: functional; conditions: MTCC 733, 24 h
Klebsiella pneumoniae [2] = assay: Antimicrobial activity against Klebsiella pneumoniae MTCC 109 assessed as growth inhibition after 24 hr by agar streak dilution method; format: functional; conditions: MTCC 109, 24 h
Bacillus cereus = assay: Antimicrobial activity against Bacillus cereus MTCC 430 assessed as growth inhibition at 100 ug/ml after 24 hr by agar streak dilution method; format: functional, organism-based
Proteus vulgaris = assay: Antimicrobial activity against Proteus vulgaris MTCC 1771 assessed as growth inhibition at 100 ug/ml after 24 hr by agar streak dilution method; format: functional, organism-based
Shigella flexneri [3] = assay: Antimicrobial activity against Shigella flexneri MTCC1457 assessed as diameter of growth inhibition zone after 24 hr; format: functional
Aspergillus niger [4] = assay: Antimicrobial activity against Aspergillus niger MTCC 282 assessed as diameter of growth inhibition zone after 48 hr; format: functional
Aspergillus niger [5] = assay: Antimicrobial activity against Aspergillus niger MTCC 282 assessed as growth inhibition after 48 hr by agar streak dilution method; format: functional; conditions: MTCC 282, 48 h
Staphylococcus aureus [6] = assay: Antimicrobial activity against Staphylococcus aureus MTCC 96 assessed as diameter of growth inhibition zone after 24 hr; format: functional
Aspergillus clavatus [7] = assay: Antimicrobial activity against Aspergillus clavatus MTCC 1323 assessed as diameter of growth inhibition zone after 48 hr; format: functional
Shigella flexneri [8] = assay: Antimicrobial activity against Shigella flexneri MTCC1457 assessed as growth inhibition after 24 hr by agar streak dilution method; format: functional; conditions: MTCC1457, 24 h
Salmonella typhi [9] = assay: Antimicrobial activity against Salmonella enterica subsp. enterica serovar Typhi MTCC 733 assessed as diameter of growth inhibition zone after 24 hr; format: functional
Escherichia coli [10] = assay: Antimicrobial activity against Escherichia coli MTCC 739 assessed as diameter of growth inhibition zone after 24 hr; format: functional
Klebsiella pneumoniae [11] = assay: Antimicrobial activity against Klebsiella pneumoniae MTCC 109 assessed as diameter of growth inhibition zone after 24 hr; format: functional
Staphylococcus aureus [12] = assay: Antimicrobial activity against Staphylococcus aureus MTCC 96 assessed as growth inhibition after 24 hr by agar streak dilution method; format: functional; conditions: MTCC 96, 24 h
Pseudomonas aeruginosa = assay: Antimicrobial activity against Pseudomonas aeruginosa MTCC 741 assessed as growth inhibition at 100 ug/ml after 24 hr by agar streak dilution method; format: functional, organism-based
Candida albicans [13] = assay: Antimicrobial activity against Candida albicans MTCC 183 assessed as growth inhibition after 48 hr by agar streak dilution method; format: functional; conditions: MTCC 183, 48 h
Escherichia coli [14] = assay: Antimicrobial activity against Escherichia coli MTCC 739 assessed as growth inhibition after 24 hr by agar streak dilution method; format: functional; conditions: MTCC 739, 24 h
[15] = tested on: Mycobacterium tuberculosis; assay: Antituberculosis activity against Mycobacterium tuberculosis H37Rv assessed as growth inhibition after 12 to 28 days by L-J MIC method; format: functional
Aspergillus fumigatus [16] = assay: Antimicrobial activity against Aspergillus fumigatus MTCC 343 assessed as diameter of growth inhibition zone after 48 hr; format: functional
Aspergillus clavatus [17] = assay: Antimicrobial activity against Aspergillus clavatus MTCC 1323 assessed as growth inhibition after 48 hr by agar streak dilution method; format: functional; conditions: MTCC 1323, 48 h
Candida albicans [18] = assay: Antimicrobial activity against Candida albicans MTCC 183 assessed as diameter of growth inhibition zone after 48 hr; format: functional
Aspergillus fumigatus [19] = assay: Antimicrobial activity against Aspergillus fumigatus MTCC 343 assessed as growth inhibition after 48 hr by agar streak dilution method; format: functional; conditions: MTCC 343, 48 h

O=C(/C=C/c1ccc([N+](=O)[O-])cc1)c1ccc(Nc2cc(=O)oc3ccccc23)cc1
MIC (Salmonella typhi [1]): 100 µg/mL (≈ 242 µM)
MIC (Klebsiella pneumoniae [2]): 100 µg/mL (≈ 242 µM)
growth inhibition (GI) (Bacillus cereus): inactive
growth inhibition (GI) (Proteus vulgaris): inactive
diameter of the inhibition zone (DIZ) (Shigella flexneri [3]): 13 mm
diameter of the inhibition zone (DIZ) (Aspergillus niger [4]): 11 mm
MIC (Aspergillus niger [5]): 100 µg/mL (≈ 242 µM)
diameter of the inhibition zone (DIZ) (Staphylococcus aureus [6]): <10 mm
diameter of the inhibition zone (DIZ) (Aspergillus clavatus [7]): 12 mm
MIC (Shigella flexneri [8]): 100 µg/mL (≈ 242 µM)
diameter of the inhibition zone (DIZ) (Salmonella typhi [9]): 14 mm
diameter of the inhibition zone (DIZ) (Escherichia coli [10]): <10 mm
diameter of the inhibition zone (DIZ) (Klebsiella pneumoniae [11]): 11 mm
MIC (Staphylococcus aureus [12]): 100 µg/mL (≈ 242 µM)
growth inhibition (GI) (Pseudomonas aeruginosa): inactive
MIC (Candida albicans [13]): 100 µg/mL (≈ 242 µM)
MIC (Escherichia coli [14]): 100 µg/mL (≈ 242 µM)
growth inhibition (GI) [15]: 95%
MIC ([15]; Mycobacterium tuberculosis, H37Rv): 1000 µg/mL (≈ 2420 µM)
diameter of the inhibition zone (DIZ) (Aspergillus fumigatus [16]): <10 mm
MIC (Aspergillus clavatus [17]): 100 µg/mL (≈ 242 µM)
diameter of the inhibition zone (DIZ) (Candida albicans [18]): 10 mm
MIC (Aspergillus fumigatus [19]): 100 µg/mL (≈ 242 µM)
